Blank lines part the entries; values can stand above or below the compound they belong to.
System: 857933-349-R-J2-PDC complex spheroids, viability
Assay: Anticancer human tumor 857933-349-R-J2-PDC patient-derived colon adenocarcinoma cell line growth inhibition [GQUAD]
Details: for IC50: curve of first compound; for viability, T/C: stronger effect = lower value
Excerpt: DNA G-quadruplex Stabilizer Agents in Combinations in Complex Spheroids
A high-throughput screen of multi-cell type tumor spheroids was designed to identify active combinations of DNA G-quadruplex stabilizer agents and targeted small molecules. Complex spheroids include a stromal component modeled by human endothelial cells (HUVEC) and fibroblasts modeled by human mesenchymal stem cells (MSCs). The concentration ranges selected for each drug and investigational agent were based upon clinically achievable concentrations if the clinical Cmax of the agent was known.
Compounds. The drugs and investigational agents: pidnarulex (CX-5461; NSC782164), APTO-253 (NSC789042), BRACO-19 (NSC847499), peposertib (NSC802822), ceralasertib (NSC780249), elimusertib (NSC800525), camonsertib (NSC841442), AZD-1390 (NSC803789), olaparib (NSC753686), talazoparib (NSC767125), ART-558 (NSC835418), sotorasib (NSC818433), MRTX-1133 (NSC836407), SN-38 (NSC673596), topotecan (NSC609699), etoposide (NSC141540), doxorubicin (NSC123127), gemcitabine (NSC613327), 5-fluorouracil (NSC19893), paclitaxel (NSC125973), vemurafenib (NSC761431), panobinostat (NSC761190), R-306465 (JNJ-16241199; NSC773264), adavosertib (NSC754352), TP-3654 (NSC805149), carboplatin (NSC241240), KSQ-4279 (NSC840948), and staurosporine (NSC755774) were obtained from the National Cancer Institute (NCI) Developmental Therapeutics Program Chemical Repository (34). The FDA-approved anticancer drug set is available from the NCI Developmental Therapeutics Program. […] The stock solutions were prepared in dimethyl sulfoxide (DMSO, Sigma-Aldrich, St. Louis, MO, cat. D2650) at 800-fold the tested concentration and stored at -70 degrees C prior to their use. All drugs and investigational agents were tested over a range starting from a high concentration at or near the clinical Cmax and decreasing in half-log increments. If the clinical Cmax for an agent had not been determined, the highest concentration tested was 10 microM.
2.3 Cell Culture. All cells were maintained in an incubator at 37 degrees C and 5% CO2 with 95% humidity. The PDC lines were cultured according to standard operating procedures established by the NCI PDMR. All PDCs were thawed and cultured in Matrigel-coated flasks prepared with a working solution of 1X Ham's F-12 nutrient mix, without supplementation (Invitrogen, cat. 11765054), 100 U/mL penicillin-streptomycin (Invitrogen, cat. 15140122), and 2.5% Matrigel (Corning Inc., cat. 354248) for the first three passages. The 857933-349-R-J2-PDC line was cultured in 6C/Colon 1B media, which includes advanced DMEM/F-12 (Thermo Fisher Scientific, cat. 12634028), 10 mM HEPES (Thermo Fisher Scientific, cat. 15630080), 1X GlutaMAX supplement (Thermo Fisher Scientific, cat. 35050061), 0.1 mg/mL primocin (InvivoGen, cat. ant-pm-2), 10% defined fetal bovine serum, heat inactivated (HyClone Laboratories Inc., cat. SH30070.03HI), 50% L-WRN conditioned media (ATCC, cat. CRL-3276), 1.25 mM N-Acetyl-L-cysteine (Sigma-Aldrich, cat. A9165), 10 mM nicotinamide (Sigma-Aldrich, cat. N0636), 1X B-27 supplement (Thermo Fisher Scientific, cat. 17504044), 1X N-2 supplement (Thermo Fisher Scientific, cat. 17502048), 10 microM Y-27632 dihydrochloride (Tocris Bioscience, cat. 1254), and 50 ng/mL human EGF recombinant protein (Thermo Fisher Scientific, cat. PHG0311). The 485176-168-R4-J1-PDC line was cultured in Panc media, which includes all 6C/Colon 1B media components plus 100 ng/mL human FGF-10 (Thermo Fisher Scientific, cat. 100-26), 500 nM SB-431542 (Selleckchem, cat. S1067), and gastrin (Tocris, cat. 3006).
[…]

[1] = second compound 0.0316 µM, first compound 0.0316 µM
[2] = second compound 0.0316 µM, first compound 0.1 µM
[3] = second compound 0.0316 µM, first compound 0.316 µM
[4] = second compound 0.0316 µM, first compound 1 µM
[5] = second compound 0.0316 µM, first compound 3.16 µM
[6] = second compound 0.0316 µM, first compound 10 µM
[7] = second compound 0.1 µM, first compound 0.0316 µM
[8] = second compound 0.1 µM, first compound 0.1 µM
[9] = second compound 0.1 µM, first compound 0.316 µM
[10] = second compound 0.1 µM, first compound 1 µM
[11] = second compound 0.1 µM, first compound 3.16 µM
[12] = second compound 0.1 µM, first compound 10 µM
[13] = second compound 0.316 µM, first compound 0.0316 µM
[14] = second compound 0.316 µM, first compound 0.1 µM
[15] = second compound 0.316 µM, first compound 0.316 µM
[16] = second compound 0.316 µM, first compound 1 µM
[17] = second compound 0.316 µM, first compound 3.16 µM
[18] = second compound 0.316 µM, first compound 10 µM
[19] = second compound 1 µM, first compound 0.0316 µM
[20] = second compound 1 µM, first compound 0.1 µM
[21] = second compound 1 µM, first compound 0.316 µM
[22] = second compound 1 µM, first compound 1 µM
[23] = second compound 1 µM, first compound 3.16 µM
[24] = second compound 1 µM, first compound 10 µM
[25] = second compound 3.16 µM, first compound 0.0316 µM
[26] = second compound 3.16 µM, first compound 0.1 µM
[27] = second compound 3.16 µM, first compound 0.316 µM
[28] = second compound 3.16 µM, first compound 1 µM
[29] = second compound 3.16 µM, first compound 3.16 µM
[30] = second compound 3.16 µM, first compound 10 µM
[31] = second compound 10 µM, first compound 0.0316 µM
[32] = second compound 10 µM, first compound 0.1 µM
[33] = second compound 10 µM, first compound 0.316 µM
[34] = second compound 10 µM, first compound 1 µM
[35] = second compound 10 µM, first compound 3.16 µM
[36] = second compound 10 µM, first compound 10 µM
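Note: spheroids exposed to compounds for one week before readout.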
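Throughout, for viability, T/C: percent viability relative to vehicle DMSO wells taken as 100%.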

- IC50 (second compound 0.0316 µM): > 10 µM
- IC50 (second compound 0.1 µM): 3.22 µM
- IC50 (second compound 0.316 µM): < 0.0316 µM
- IC50 (second compound 1 µM): < 0.0316 µM
- IC50 (second compound 3.16 µM): < 0.0316 µM
- IC50 (second compound 10 µM): < 0.0316 µM
SMILES: CC(C)n1c(=O)n(C)c2cnc3cc(F)c(-c4ccc(OCCCN5CCCCC5)nc4)cc3c21 + Cc1cnc(CNC(=O)c2c(=O)c3ccc(N4CCCN(C)CC4)nc3n3c2sc2ccccc23)cn1
- viability, T/C [1]: 76.9%
- viability, T/C [2]: 60.9%
- viability, T/C [3]: 73.1%
- viability, T/C [4]: 69.2%
- viability, T/C [5]: 73.3%
- viability, T/C [6]: 54.3%
- viability, T/C [7]: 43.9%
- viability, T/C [8]: 45.5%
- viability, T/C [9]: 52.8%
- viability, T/C [10]: 52%
- viability, T/C [11]: 57.7%
- viability, T/C [12]: 31.4%
- viability, T/C [13]: 32.7%
- viability, T/C [14]: 39.1%
- viability, T/C [15]: 33%
- viability, T/C [16]: 35.2%
- viability, T/C [17]: 39.1%
- viability, T/C [18]: 17.5%
- viability, T/C [19]: 9.65%
- viability, T/C [20]: 10.9%
- viability, T/C [21]: 8.38%
- viability, T/C [22]: 8.38%
- viability, T/C [23]: 11%
- viability, T/C [24]: 6.11%
- viability, T/C [25]: 3.19%
- viability, T/C [26]: 3.85%
- viability, T/C [27]: 4.08%
- viability, T/C [28]: 3.05%
- viability, T/C [29]: 4.81%
- viability, T/C [30]: 1.31%
- viability, T/C [31]: 3.24%
- viability, T/C [32]: 2.19%
- viability, T/C [33]: 2.95%
- viability, T/C [34]: 1.88%
- viability, T/C [35]: 2.22%
- viability, T/C [36]: 0.46%

SMILES: C#Cc1c(F)ccc2cc(O)cc(-c3ncc4c(N5CC6CCC(C5)N6)nc(OCC56CCCN5CC(F)C6)nc4c3F)c12 (centres undefined) + CN(C)c1ccc(Nc2c3ccc(NC(=O)CCN4CCCC4)cc3nc3cc(NC(=O)CCN4CCCC4)ccc23)cc1
- IC50 (second compound 0.0316 µM): > 10 µM
- IC50 (second compound 0.1 µM): > 10 µM
- IC50 (second compound 0.316 µM): > 10 µM
- IC50 (second compound 1 µM): > 10 µM
- IC50 (second compound 3.16 µM): > 10 µM
- IC50 (second compound 10 µM): > 10 µM
- viability, T/C [1]: 111%
- viability, T/C [2]: 96.2%
- viability, T/C [3]: 98.1%
- viability, T/C [4]: 96.8%
- viability, T/C [5]: 102%
- viability, T/C [6]: 90.3%
- viability, T/C [7]: 104%
- viability, T/C [8]: 104%
- viability, T/C [9]: 96.1%
- viability, T/C [10]: 101%
- viability, T/C [11]: 94.3%
- viability, T/C [12]: 94.6%
- viability, T/C [13]: 99.1%
- viability, T/C [14]: 97%
- viability, T/C [15]: 95.5%
- viability, T/C [16]: 92%
- viability, T/C [17]: 96.2%
- viability, T/C [18]: 87%
- viability, T/C [19]: 97.1%
- viability, T/C [20]: 88.7%
- viability, T/C [21]: 91.3%
- viability, T/C [22]: 77.8%
- viability, T/C [23]: 91.4%
- viability, T/C [24]: 80.3%
- viability, T/C [25]: 81.6%
- viability, T/C [26]: 75.1%
- viability, T/C [27]: 80.6%
- viability, T/C [28]: 69.7%
- viability, T/C [29]: 78.2%
- viability, T/C [30]: 74.7%
- viability, T/C [31]: 67.4%
- viability, T/C [32]: 67.5%
- viability, T/C [33]: 63.5%
- viability, T/C [34]: 68.8%
- viability, T/C [35]: 71%
- viability, T/C [36]: 58.9%
